Converted amounts (≈) assume the structure as drawn. Read-outs that look alike come from different tables or passages of the source. Residues, ends and D or L forms follow the SMILES beside them. No end group written: not given here.
Experiments:
[1] = tested on: Escherichia coli ATCC25922; assay type: cell-based; conditions: ATCC25922, 24 h
Procedure: (§1) The antimicrobial activity of each peptide against food-pathogens was characterized by the minimum inhibitory concentration (MIC) ([Ma et al., 2013]). A logarithmic growth-phase culture of bacteria (1 × 10^6 CFU/mL) was mixed with peptide solutions (final concentration ranging from 0 μM to 256 μM) in 96-well plates. After the 96-well plates were incubated for 24 h at 37°C, optical dispersion (OD) was measured using a microplate reader (Bio-Rad, ıHercules, CA, United States) at 630 nm. […] The broth with bacteria cells was used as the negative control, and un-inoculated broth was used as a positive control. The tests were performed in triplicate using three replicates for each experiment.

Escherichia coli UB1005 = assay type: cell-based
Procedure: as §1

[2] = tested on: Salmonella typhimurium C77-31; assay type: cell-based
Procedure: as §1

[3] = tested on: Salmonella typhimurium ATCC14028; assay type: cell-based
Procedure: as §1

[4] = tested on: Salmonella pullorum C79-13; assay type: cell-based; conditions: 24 h
Procedure: as §1

[5] = tested on: Cronobacter sakazakii ATCC29544; assay type: cell-based
Procedure: as §1

[6] = tested on: Listeria monocytogenes CMCC54004; assay type: cell-based
Procedure: as §1

Bacillus cereus CMCC6303 = assay type: cell-based
Procedure: as §1

[7] = tested on: Staphylococcus aureus CMCC26074; assay type: cell-based
Procedure: as §1

[8] = tested on: Staphylococcus aureus ATCC25923; assay type: cell-based
Procedure: as §1

EA. hy 926 cells = test: Cytotoxicity (CCK-8); assay type: cell-based, human; conditions: CCK-8, 24 h; for EA. hy 926 cell viability: peptide concentration 128 μM
Procedure: The cytotoxicity of the peptides was tested on the EA. hy 926 cell line by using the Cell Counting Kit-8 (CCK-8, Dojindo, Japan) as described in a previous study ([Sánchez-Gómez et al., 2015]). The EA. Hy 926 cells cultured in the logarithmic growth -phase was then diluted with PBS to a single cell suspension. A 100 μL cell suspension (2 × 10^5 cells) was added to 96-well plates and cultured in an incubator with a 5% CO2 atmosphere at 37°C. The cell culture medium was removed, and the two-fold serial dilutions of peptides prepared using DMEM with 5% FBS were added to the 96-well plates. After 24 h, 100 μL DMEM with 10% CCK-8 was added to the 96-well plates and then cultured for 4 h. The absorbance was measured at 492 nm by using a microplate reader. DMEM served as a positive control and cells mixed with DMEM without peptides as a negative control. Melittin was employed as a control peptide.

[9] = tested on: Escherichia coli ATCC25922; assay type: cell-based; conditions: for MIC, CaCl2 / MIC, Control / MIC, KCl / MIC, MgCl2 / MIC, NH4Cl / MIC, NaCl: ATCC25922, 24 h
Procedure: To evaluate the effect of different physiological conditions on the stability of peptides, we determined the salt stability, thermal stability, and enzymatic stability as described in a previous study ([Dong, 2013]; [Sun et al., 2018]). Escherichia coli ATCC25922 grown in the logarithmic phase (1 × 10^6 CFU/mL) was exposed to each peptide at different salt concentrations (150 mM NaCl, 4.5 mM KCl, 6 μM NH4Cl, 1 mM MgCl2, 8 μM ZnCl2, 2 mM CaCl2, and 4 μM FeCl3). The peptides were treated for 1 h at 100°C to test for thermal stability. The peptides were treated with trypsin, pepsin, papain and protease k at a concentration of 1 mg/mL for 1 h at 37°C to test for enzyme stability. The control group consisted of untreated peptides. The subsequent assay was consistent with the MIC assay.

[10] = tested on: 12 typical food-pathogens; conditions: over the 12 food-pathogens of Table 3
Procedure: as §1
The selectivity index (SI), calculated as the ratio of MHC to GM, was used a comparison parameter for the safety and efficacy of peptides.

[11] = tested on: Salmonella enteric-subspenterica CMCC47020; conditions: 1 × 10^6 CFU/mL, 24 h, 37°C, triplicate
Procedure: as §1

[12] = tested on: Salmonella enteric-subspenterica CMCC50071; conditions: 1 × 10^6 CFU/mL, 24 h, 37°C, triplicate
Procedure: as §1

[13] = Staphylococcus aureus CMCC26074, 1 × 10^6 CFU/mL, 24 h, 37°C, triplicate
[14] = Staphylococcus aureus ATCC25923, 1 × 10^6 CFU/mL, 24 h, 37°C, triplicate
[15] = E. coli ATCC25922, peptides treated with trypsin 1 mg/mL, 1 h, 37°C

Row | Compound | MIC [1] [µM] | MIC (Escherichia coli UB1005; UB1005, 24 h) [µM] | MIC ([2]; murium C77-31, 24 h) [µM] | MIC [4] [µM] | MIC ([5]; ATCC29544, 24 h) [µM] | EA. hy 926 cell viability (EA. hy 926 cells) [%] | MIC, Heat ([9]; ATCC25922, 1 h) [µM] | MIC, Papain ([9]; ATCC25922, 1 h) [µM] | MIC, Pepsin ([9]; ATCC25922, 1 h) [µM] | MIC, Proteinase k ([9]; ATCC25922, 1 h) [µM] | MIC, CaCl2 [9] [µM] | MIC, Control [9] [µM] | MIC, KCl [9] [µM] | MIC, MgCl2 [9] [µM] | MIC, NH4Cl [9] [µM] | MIC, NaCl [9] [µM] | GM (geometric mean of MICs) [10] [µM] | MIC ([3]; ATCC14028, 24 h) [µM] | MIC ([6]; CMCC54004, 24 h) [µM] | MIC (Bacillus cereus CMCC6303; CMCC6303, 24 h) [µM] | further results
1 | RWKRIVVIRKRR-NH2 [W2K3K10R11] | 4 | 256 | 256 | 256 | 256 | 83 | 16 | 4 | 16 | 8 | 4 | 4 | 4 | 4 | 4 | 8 | 170.0 | – | – | – | MIC ([3]; Salmonella typhimurium ATCC14028, 1 × 10^6 CFU/mL, 24 h, 37°C, triplicate): 128 µM; MIC ([6]; Listeria monocytogenes CMCC54004, 1 × 10^6 CFU/mL, 24 h, 37°C, triplicate): 128 µM; MIC (Bacillus cereus CMCC6303; Bacillus cereus CMCC6303, 1 × 10^6 CFU/mL, 24 h, 37°C, triplicate): 128 µM; MIC [7, 13]: >256 µM; MIC [8, 14]: >256 µM; MIC, Trypsin [9, 15]: >256 µM
2 | RWRRIVVIRVRR-NH2 [W2R3V10R11] | 2 | 16 | 32 | 32 | 16 | 80 | 4 | 2 | 32 | 8 | 8 | 2 | 2 | 4 | 2 | 4 | 24.0 | 32 | 2 | 64 | MIC ([7]; CMCC26074, 24 h): 64 µM; MIC ([8]; ATCC25923, 24 h): 256 µM; MIC, Trypsin ([9]; ATCC25922, 1 h): >256 µM; MIC [11]: 128 µM; MIC [12]: 8 µM
3 | RKWRIVVIRVRR-NH2 [K2W3V10R11] | 2 | 8 | 32 | 8 | 32 | 80 | 8 | 2 | 128 | 256 | 8 | 2 | 2 | 4 | 2 | 8 | 19.0 | 32 | 2 | 16 | MIC ([7]; CMCC26074, 24 h): 256 µM; MIC ([8]; ATCC25923, 24 h): 128 µM; MIC, Trypsin ([9]; ATCC25922, 1 h): >256 µM; MIC [11]: 64 µM; MIC [12]: 8 µM
4 | CC[C@H](C)[C@@H]1NC(=O)[C@H](CCCNC(=N)N)NC(=O)[C@@H](NC(=O)[C@H](CC(C)C)NC(=O)[C@@H](N)CCCNC(=N)N)CSSC[C@@H](C(=O)N[C@@H](CCCNC(=N)N)C(N)=O)NC(=O)[C@H](C(C)C)NC(=O)[C@H](CCCNC(=N)N)NC(=O)[C@H]([C@@H](C)CC)NC(=O)[C@H](C(C)C)NC(=O)[C@H](C(C)C)NC1=O [L2C3V10C11, bactenecin] (HELM PEPTIDE1{R.L.C.R.I.V.V.I.R.V.C.R.[am]}$PEPTIDE1,PEPTIDE1,3:R3-11:R3$$$V2.0) | 4 (≈ 5.93 µg/mL) | – | >256 | >256 | 256 (≈ 380 µg/mL) | – | 8 (≈ 11.9 µg/mL) | 16 (≈ 23.7 µg/mL) | 16 (≈ 23.7 µg/mL) | 32 (≈ 47.5 µg/mL) | 8 (≈ 11.9 µg/mL) | 4 (≈ 5.93 µg/mL) | 4 (≈ 5.93 µg/mL) | 4 (≈ 5.93 µg/mL) | 4 (≈ 5.93 µg/mL) | 16 (≈ 23.7 µg/mL) | – | – | – | 64 (≈ 94.9 µg/mL) | MIC ([7]; CMCC26074, 24 h): >256 µM; MIC ([8]; ATCC25923, 24 h): >256 µM; MIC, Trypsin ([9]; ATCC25922, 1 h): 64 µM (≈ 94.9 µg/mL)
5 | melittin [reference compound] | – | – | – | – | – | – | – | – | – | – | – | – | – | – | – | – | – | – | – | – | Cytotoxicity (EA. hy 926 cells; at 16 μM): 100%
6 | RRFRIVVIRWLR-NH2 [R2F3W10L11] | 2 | 16 | 64 | 32 | 32 | 71 | 32 | 8 | 16 | 128 | 8 | 2 | 8 | 2 | 4 | 16 | 32.0 | 32 | 16 | 32 | MIC ([7]; CMCC26074, 24 h): 256 µM; MIC ([8]; ATCC25923, 24 h): 256 µM; MIC, Trypsin ([9]; ATCC25922, 1 h): >256 µM; MIC [11]: 64 µM; MIC [12]: 8 µM
7 | RKRRIVVIRRKR-NH2 [K2R3R10K11] | 8 | – | – | – | – | 85 | 16 | 8 | 32 | 8 | 16 | 8 | 8 | 8 | 8 | 32 | 191.8 | 128 | 32 | 128 | MIC (Escherichia coli UB1005; Escherichia coli UB1005, 1 × 10^6 CFU/mL, 24 h, 37°C, triplicate): 256 µM; MIC ([2]; Salmonella typhimurium C77-31, 1 × 10^6 CFU/mL, 24 h, 37°C, triplicate): >256 µM; MIC ([4]; Salmonella pullorum C79-13, 1 × 10^6 CFU/mL, 37°C, triplicate): 256 µM; MIC ([5]; Cronobacter sakazakii ATCC29544, 1 × 10^6 CFU/mL, 24 h, 37°C, triplicate): >256 µM; MIC [7, 13]: >256 µM; MIC [8, 14]: >256 µM; MIC, Trypsin [9, 15]: >256 µM
